This passage reports GI50 and TGI results from PubChem BioAssay (NCI).

Assay in all cases: NCI-60 cell line screen, 48 h
Assay [1] has as its system ACHN renal.
The test system of assay [2] is OVCAR-3 ovarian.
The subject of assay [3] is HT29 colon.
For assay [4], the system named is SK-MEL-5 melanoma.
Assay [5] concerns SF-539 CNS.
Assay [6] has as its system IGROV1 ovarian.
The test system of assay [7] is RXF 393 renal.
The test system of assay [8] is HL-60(TB) leukemia.
Assay [9] relates to 786-0 renal.
Assay [10] deals with K-562 leukemia.

“And” between values parts separate entries of the source, which are not always exact repeats. Equal values may be shown once.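 Exposure lasted 48 hours, with cells grown in 96-well plates and compounds tested at five concentrations. Abbreviation: GI50, concentration required for 50% inhibition of growth. At the TGI there is no net growth.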

Turning to `O=c1ccc2nc(-c3ccccn3)nn(-c3ccccc3)c-2c1`, the GI50 in [1] was 1.59 µM; in assay [2], 1.77 µM; in assay [3] it was 2.85 µM; in assay [4] it was 2.3 µM; in [5] it was 6.93 µM; in assay [6], 2.63 µM. For the same molecule, the GI50 in assay [7] is 1.6 µM; in [8] it was 0.64 µM. In addition, the TGI amounted to 2.99 µM in [1]; 3.17 µM in [2]; 8.85 µM in assay [3]; 5.53 µM in assay [4]; 19.8 µM in [5]; 6.65 µM in assay [6]. The TGI in assay [7] worked out at 3.01 µM; in [8], 3.11 µM.

Consider `C/C=C(/C)C(=O)O[C@H]1[C@H](O)CC(c2ccc3c(c2O)C(O)=C2C(=O)C4(OC)C(O)=C(C(N)=O)C(=O)[C@H](CC(=O)c5ccccc5O)C4CC2[C@@]3(C)OC)O[C@@H]1C` (stereo not given in full), for which the TGI in [1] was 3.96 µM; in [9], 1.43 µM and 1.35 µM; in assay [2] it was 1.9 µM; in assay [3] it was 1.19 µM and 0.255 µM; in [4], 0.0149 µM and 0.0199 µM; in assay [5], 0.101 µM. The TGI in [6] is 2.48 µM and 0.341 µM; in assay [10], 10.7 µM.

Take `Brc1ccc2c(-c3csc(-c4c[nH]c5ccccc45)n3)c[nH]c2c1`: the TGI in assay [1] worked out at 32.1 µM; in assay [9], 33.8 µM; in assay [2], 29.1 µM; in assay [3] it was 29 µM; in assay [4], 28.6 µM; in [5], 30.8 µM. Further, the values for the TGI in assay [6], in assay [7] and in assay [10] were 26.6 µM, 38.8 µM and 37.5 µM, respectively. Also, the GI50 in assay [10] is 18.8 µM.

Turning to `C=CCC(C(=O)Nc1cccc2[nH]cnc12)C(=O)OCC` (stereo not given), the TGI in assay [1], in [9], in assay [2], in [3], in [5] and in assay [6] was greater than 100 µM in each case. The TGI in assay [8] and in assay [10] was greater than 100 µM each time.

Regarding `Cc1ccc(-n2cc([Si](C)(C)C)nn2)s1`, the TGI in assay [1], in assay [9], in [2], in assay [3], in assay [4] and in assay [5] was greater than 100 µM in each case. The same molecule returned a TGI in assay [10] greater than 100 µM.

Consider `Cc1nc2ccccc2c(/C=C/c2ccc(Cl)cc2)c1C(=O)/C=C/c1ccccc1`, for which the GI50 in assay [1] was 1.53 µM; in [2], 1.36 µM; in [3], 1.58 µM; in assay [4] it was 1.61 µM; in assay [5], 1.7 µM; in [6], 1.24 µM. Further, the GI50 in assay [7] was 1.6 µM; in [8] it was 2.01 µM. The TGI was 2.86 µM in assay [1]; 2.77 µM in assay [2]; greater than 100 µM in [3]; 2.96 µM in assay [4]; 3.11 µM in assay [5]; 3.68 µM in [6]. Besides, the TGI in assay [7] came out at 2.98 µM; in [8] it was 4.58 µM.

Consider `Cc1sc2nc3n(c(=O)c2c1C)N=CN(c1ccc(F)cc1)C3`, for which the TGI in assay [1] is greater than 100 µM; in [9] it was 38.3 µM; in assay [2] it was greater than 100 µM; in [3] it was greater than 100 µM; in assay [4] it was greater than 100 µM; in assay [6], greater than 100 µM. Further, the TGI in [7] and in assay [10] was greater than 100 µM in each case.

`CCOC(=O)C(NC(=O)OC(C)(C)C)C(=O)OCC`: the TGI in [1], in assay [9], in assay [3], in [4], in [6] and in assay [7] was greater than 100 µM throughout. Also, the TGI in [10] is greater than 100 µM.

As for `COc1cc(Br)c(CC2C3=C(CCN2C(=O)C2CCC2)CC(=O)CC3)cc1O` (stereo not given), the TGI in assay [1] is 86.9 µM; in assay [9], 95.8 µM; in assay [2], 57 µM; in [3] it was 71.6 µM; in [4] it was greater than 100 µM; in [5], greater than 100 µM. Moreover, the TGI in assay [6] is greater than 100 µM; in assay [8], 36.9 µM; in [10] it was 81.3 µM.

On to `CN1C/C(=C\C=C\c2ccccc2)C(=O)/C(=C/C=C/c2ccccc2)C1`, for which the TGI in [1], in assay [9], in assay [2], in assay [3], in assay [4] and in assay [5] was greater than 100 µM throughout. Besides, the TGI in assay [6], in assay [7] and in [10] was greater than 100 µM each time.

For the molecule `CCCCNC(=O)/N=C/c1c(O)c2ccccc2oc1=O`, the TGI in assay [1] is greater than 100 µM; in assay [3] it was greater than 100 µM; in [4] it was greater than 100 µM; in assay [5], greater than 100 µM; in [6], greater than 100 µM; in assay [7], 79.5 µM. The molecule further showed a TGI in [8] of 57.4 µM.

With `Oc1ccc(Cl)cc1C1=NC(/N=C\c2ccccc2)=NC(c2ccccc2)C1` (stereo not given), the TGI in assay [9] was greater than 100 µM; in assay [2], greater than 100 µM; in assay [3], greater than 100 µM; in assay [4], 61.2 µM; in assay [5] it was greater than 100 µM; in assay [6], greater than 100 µM. Besides, the TGI in assay [7] and in [10] was greater than 100 µM throughout.

Turning to `COc1ccc2nc3cc(Cl)ccc3c(NCCNc3c4ccc(Cl)cc4nc4ccc(OC)cc34)c2c1`, the results for the GI50 in assay [1], in [4] and in assay [7] were 1.6 µM, 1.81 µM and 1.55 µM, respectively. In addition, the results for the TGI in assay [1], in assay [4] and in [7] were 3.11 µM, 3.27 µM and 2.92 µM, respectively.

In the case of `CC(C)(C)OC(=O)NCC(=O)N1CCN(C(=O)CNC(=O)OC(C)(C)C)CC1`, the TGI in assay [1], in assay [9], in assay [2], in assay [3], in assay [4] and in [5] was greater than 100 µM in each case. The TGI in [6], in [8] and in [10] was greater than 100 µM throughout.

Consider `O=C1CSc2cc([N+](=O)[O-])ccc2N1`, for which the TGI in [1], in assay [9], in assay [2], in assay [3], in [4] and in [5] was greater than 100 µM in each case. For the same molecule, the TGI in assay [6], in [7] and in assay [10] was greater than 100 µM each time.

`NCCCNCCCCN1CC1`: the TGI in assay [2] is 4.78 µM; in assay [3], greater than 37.5 µM; in [4], 11.7 µM; in [5], 3.4 µM; in assay [7], 7.83 µM; in [10], greater than 20.7 µM.

For `O=C(N/N=C/c1cc(Br)cc(Br)c1[O-])c1ccccc1O.O=C(N/N=C/c1cc(Br)cc(Br)c1[O-])c1ccccc1O.[Ni+2]`, the TGI in assay [1] was 1.53 µM; in [2] it was 0.52 µM; in [3], 2.24 µM; in assay [4], 1.44 µM; in assay [5], 0.72 µM; in assay [6] it was 1.34 µM. Besides, the TGI in assay [7] is 2.62 µM; in [8], 0.346 µM; in assay [10], 4.88 µM.

Take `NC(CSSCC(N)Cc1ccccc1)Cc1ccccc1` (stereo not given): the TGI is greater than 100 µM in assay [1]; greater than 100 µM in [9]; greater than 100 µM in [2]; greater than 100 µM in [3]; 50.4 µM in assay [4]; greater than 100 µM in assay [6]. Also, the TGI in [8] is 74.4 µM; in assay [10] it was greater than 100 µM.

Take `CSc1scc2c1/C(=N/NC(N)=O)CCC2`: the TGI in assay [1], in assay [9], in assay [2], in assay [3], in assay [4] and in [5] was greater than 100 µM in each case. The molecule further yielded a TGI in assay [10] greater than 100 µM.

For the molecule `COc1ccc(C[C@H](N)C(=O)N2C[C@@H](CO)C[C@@H](n3ccc(=O)[nH]c3=O)C2)cc1`, the TGI in [1], in assay [2], in assay [3], in assay [4], in [5] and in [6] was greater than 100 µM each time. In addition, the TGI in assay [7], in assay [8] and in assay [10] was greater than 100 µM throughout.

Regarding `COc1ccc(N2NC(c3ccccc3)(c3ccccc3)C(C)C2=O)cc1` (stereo not given), the TGI in assay [1], in assay [2], in [3], in assay [4], in assay [5] and in [6] was greater than 100 µM each time. The TGI in assay [7], in assay [8] and in [10] was greater than 100 µM in each case.

Regarding `CC(=O)/C(=C/N1CCNC1=S)C(=O)Nc1ccccc1C`, the TGI in assay [1], in [9], in assay [2], in assay [3], in assay [4] and in [5] was greater than 100 µM throughout. Moreover, the TGI in assay [6], in assay [7] and in assay [10] was greater than 100 µM in each case.

For the molecule `NC1CC=C(COC(=O)C(O)(c2ccccc2)C2CC2)CC1` (stereo not given), the TGI in assay [1], in assay [9], in [2], in [3], in [4] and in assay [5] was greater than 100 µM each time. Further, the TGI in assay [6] and in [7] was greater than 100 µM in each case.

With `C=CC(C)(C)C(=C)C(=O)Nc1ccccc1I`, the TGI in [1], in assay [9], in assay [2], in [3], in [4] and in assay [7] was greater than 100 µM throughout. The molecule also had a TGI in [10] greater than 100 µM.

Turning to `[N-]=[N+]=Nc1c([N+](=O)[O-])c(=O)n2c3c(cccc13)CCC2`, the TGI in assay [1] was 31.8 µM; in [9] it was 30.9 µM; in [2] it was 32.5 µM; in [3], 36.1 µM; in [4] it was 30.3 µM; in assay [5], 52.2 µM. The TGI amounted to 41 µM in assay [6], 4.56 µM in assay [8] and 3.84 µM in assay [10].

On to `COC1OC2=CCC3C(=O)NC(=O)C3C2[C@H](OCc2ccccc2)C1OCc1ccccc1` (stereo not given in full), for which the TGI in [1] worked out at 34.8 µM; in assay [2] it was 3.1 µM; in assay [3], 3.36 µM; in assay [4], 34.1 µM; in assay [5], 31 µM; in assay [6] it was 3.86 µM. Besides, the TGI in assay [7] was found to be 2.99 µM.

For the molecule `COc1ccc(-c2nn(-c3ccc(NC(=O)Nc4ccc(Cl)c(C(F)(F)F)c4)cc3)cc2-c2ccncc2)cc1Cl`, the GI50 in assay [1] was 1.6 µM; in assay [2] it was 1.67 µM; in [3] it was 1.65 µM; in assay [4], 1.5 µM; in assay [5] it was 1.53 µM; in [6] it was 2.16 µM. Besides, the figures for the GI50 in [7], in assay [8] and in assay [10] were 0.74 µM, 2.13 µM and 1.25 µM, respectively. In addition, the TGI in assay [1] came to 5.27 µM; in assay [2], 6.14 µM; in [3] it was 4.57 µM; in assay [4], 2.82 µM; in assay [5], 4 µM; in assay [6], 63.1 µM. For the same molecule, the TGI is 2.19 µM in assay [7], 5.75 µM in [8] and 8.55 µM in assay [10].

Turning to `CNc1ncnc2c1cnn2Cc1cn(COCC(O)CO)nn1` (stereo not given), the TGI in [1], in assay [9], in assay [2], in assay [3], in [4] and in [5] was greater than 100 µM in each case. In addition, the TGI in assay [6] and in assay [8] was greater than 100 µM in each case.

Take `Cn1c(O)c(C=Nc2ccccc2Cl)c(=O)n(C)c1=O`: the TGI was 92.2 µM in assay [1]; 37.7 µM in [9]; 49.5 µM in assay [2]; greater than 100 µM in [3]; greater than 100 µM in assay [4]; 60.7 µM in [5]. In addition, the results for the TGI in assay [6], in assay [7] and in assay [10] were greater than 100 µM, 45.4 µM and greater than 100 µM, respectively.
